The results in this text go back to US20240228482A1, “COMPOUNDS, COMPOSITIONS AND METHODS OF TREATING CANCER” (HOTSPOT THERAPEUTICS, INC., priority 2021, published 2024).

pIC50: −log10 of the molar value.

For the first test, the target named is T1, CBL-B (Homo sapiens, UniProt Q13191).
T1 construct: GST
T1 sequence (Q13191 whole entry): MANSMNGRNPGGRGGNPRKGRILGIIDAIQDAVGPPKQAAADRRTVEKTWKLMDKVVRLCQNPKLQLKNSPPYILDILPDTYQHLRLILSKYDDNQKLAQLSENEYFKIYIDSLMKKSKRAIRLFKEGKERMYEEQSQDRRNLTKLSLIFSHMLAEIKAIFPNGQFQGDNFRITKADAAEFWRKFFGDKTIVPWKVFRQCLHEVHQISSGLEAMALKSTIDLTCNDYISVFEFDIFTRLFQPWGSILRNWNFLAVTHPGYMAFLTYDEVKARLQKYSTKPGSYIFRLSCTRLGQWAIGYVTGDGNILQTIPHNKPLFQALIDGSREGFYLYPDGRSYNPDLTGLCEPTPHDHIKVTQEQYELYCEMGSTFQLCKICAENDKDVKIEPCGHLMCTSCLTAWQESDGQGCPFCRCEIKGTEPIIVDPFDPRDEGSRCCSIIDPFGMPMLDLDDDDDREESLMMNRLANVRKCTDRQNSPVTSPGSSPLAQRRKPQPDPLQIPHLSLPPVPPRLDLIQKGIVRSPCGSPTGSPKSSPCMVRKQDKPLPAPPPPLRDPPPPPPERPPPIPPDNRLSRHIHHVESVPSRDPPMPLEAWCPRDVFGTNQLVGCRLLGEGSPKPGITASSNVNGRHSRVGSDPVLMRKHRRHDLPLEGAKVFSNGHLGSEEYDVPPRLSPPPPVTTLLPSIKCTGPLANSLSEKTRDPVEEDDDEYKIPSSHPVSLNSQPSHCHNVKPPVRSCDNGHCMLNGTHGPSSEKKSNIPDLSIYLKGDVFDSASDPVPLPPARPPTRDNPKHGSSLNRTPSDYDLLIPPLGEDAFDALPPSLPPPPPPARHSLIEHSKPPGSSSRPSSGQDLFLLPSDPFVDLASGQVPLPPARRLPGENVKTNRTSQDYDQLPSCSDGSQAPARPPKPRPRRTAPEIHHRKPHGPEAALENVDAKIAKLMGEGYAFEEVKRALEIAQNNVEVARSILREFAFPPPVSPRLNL
In words: CBL-B TR-FRET IC50 screening (E1/E2 ubiquitination, Biotin-Ubiquitin, Anti GST-Tb donor / Streptavidin-d2 acceptor). It is filed as biochemical. The following applies: CBL-B 10 nM final; 11-point titration from 100 uM; binned A-F; read-out: CBL-B TR-FRET activity IC50.
Regarding `CN1CCN(Cc2cc(C(F)(F)F)c3cn(-c4cccc([C@@H](c5nncn5C)C5CCC5)c4)c(=O)n3c2)CC1=O` [Compound 364_P1], the pIC50 was 6.00 to 6.52. `CN1CCN(Cc2cc(C(F)(F)F)c3cn(-c4cccc([C@H](c5nncn5C)C5CCC5)c4)c(=O)n3c2)CC1=O` [Compound 364_P2]: the pIC50 was over 7.00. As to `CN1CC2CCC(C1)N2c1cc(C(F)(F)F)c2cn(-c3cccc([C@H](c4nncn4C)C4CCC4)c3)c(=O)n2c1` [Compound 373], the pIC50 is 6.52 to 7.00. The same measure, in the same setting: then `CN1C2CCC1CN(c1cc(C(F)(F)F)c3cn(-c4cccc([C@H](c5nncn5C)C5CCC5)c4)c(=O)n3c1)C2` [Compound 374], with 6.00 to 6.52; and `COCCN(c1cccc(-n2cc3c(C(F)(F)F)cc(CN4CCC[C@H](C)C4)cn3c2=O)c1)c1nncn1C` [Compound 375], with 6.52 to 7.00; and `CC1CCN(Cc2cc(C(F)(F)F)c3cn(-c4cccc([C@H](c5nncn5C)C5CCC5)c4)c(=O)n3c2)CC1` [Compound 376], with over 7.00. As for `CN(C)C(=O)C1CCN(Cc2cc(C(F)(F)F)c3cn(-c4cccc([C@H](c5nncn5C)C5CCC5)c4)c(=O)n3c2)CC1` [Compound 377], the pIC50 is over 7.00.

On to `Cn1cnnc1[C@@H](c1cccc(-n2cc3c(C(F)(F)F)cc(CN4CCS(=O)(=O)CC4)cn3c2=O)c1)C1CCC1` [Compound 378], for which the pIC50 is over 7.00. As for `C[C@H]1CCCN(C(=O)c2cc(C(F)(F)F)c3cn(-c4cccc([C@H](c5nncn5C)C5CCC5)c4)c(=O)n3c2)C1` [Compound 379], the pIC50 is over 7.00. Take `C[C@H]1CCCN1Cc1cc(C(F)(F)F)c2cn(-c3cccc([C@@H](c4nncn4C)C4CCC4)c3)c(=O)n2c1` [Compound 380_P1]: the pIC50 was 5.52 to 6.00. In the case of `C[C@H]1CCCN1Cc1cc(C(F)(F)F)c2cn(-c3cccc([C@H](c4nncn4C)C4CCC4)c3)c(=O)n2c1` [Compound 380_P2], the pIC50 is over 7.00.

As for `C[C@@H]1CCCN1Cc1cc(C(F)(F)F)c2cn(-c3cccc([C@@H](c4nncn4C)C4CCC4)c3)c(=O)n2c1` [Compound 381_P1], the pIC50 was 5.52 to 6.00.

For `C[C@@H]1CCCN1Cc1cc(C(F)(F)F)c2cn(-c3cccc([C@H](c4nncn4C)C4CCC4)c3)c(=O)n2c1` [Compound 381_P2], the pIC50 was over 7.00. On to `COC[C@@H]1CCCN1Cc1cc(C(F)(F)F)c2cn(-c3cccc([C@@H](c4nncn4C)C4CCC4)c3)c(=O)n2c1` [Compound 382_P1], for which the pIC50 was over 7.00.

In the case of `COC[C@@H]1CCCN1Cc1cc(C(F)(F)F)c2cn(-c3cccc([C@H](c4nncn4C)C4CCC4)c3)c(=O)n2c1` [Compound 382_P2], the pIC50 was 5.52 to 6.00.

The test is the same for the next values; noted with them: Updated Activity, second part of Table 2 (head 'Patent Cmpd No / Updated Activity'); same CBL-B TR-FRET IC50 bins A-F.
With `C[C@H]1CCCN(Cc2cc(C(F)(F)F)c3cn(-c4cccc(C5(c6nncn6C)CC(C)(C)C5)c4)c(=O)n3c2)C1` [Compound 433], the pIC50 was over 7.00.

The same test, now with this note: second part of Table 2 (head 'Patent Cmpd No / Updated Activity'); same CBL-B TR-FRET IC50 bins A-F; read-out: Updated Activity.
With `COC(=O)N1CCC(c2cc(C(F)(F)F)c3cn(-c4cccc([C@H](c5nncn5C)C5CCC5)c4)c(=O)n3c2)CC1` [Compound 395], the pIC50 was 6.52 to 7.00. On the same count and under the same terms, then `CC(=O)N1CCC(c2cc(C(F)(F)F)c3cn(-c4cccc([C@H](c5nncn5C)C5CCC5)c4)c(=O)n3c2)CC1` [Compound 398], with over 7.00; and `Cn1cnnc1[C@H](c1cccc(-n2cc3c(C(F)(F)F)cccn3c2=O)c1)C1CCC1` [Compound 401_P1], with over 7.00; and `Cn1cnnc1[C@@H](c1cccc(-n2cc3c(C(F)(F)F)cccn3c2=O)c1)C1CCC1` [Compound 401_P2], with under 5.00. Same read-out and setting: in the case of `C[C@@H]1CN(Cc2cc(C(F)(F)F)c3cn(-c4cccc([C@H](CC5CCC5)c5nncn5C)c4)c(=O)n3c2)CCO1` [Compound 402] it was under 5.00. With `C[C@H]1CCCN(Cc2cc(C(F)(F)F)c3cn(-c4cccc([C@H](c5nncn5C)C5CNC5)c4)c(=O)n3c2)C1` [Compound 403], the pIC50 was under 5.00. For the compound `Cn1cnnc1[C@@H](c1cc(-n2cc3c(C(F)(F)F)cccn3c2=O)cs1)C1CCC1` [Compound 403_P1], the pIC50 was under 5.00. In the case of `Cn1cnnc1[C@H](c1cc(-n2cc3c(C(F)(F)F)cccn3c2=O)cs1)C1CCC1` [Compound 403_P2], the pIC50 is 6.00 to 6.52.

For the compound `Cn1cnnc1[C@@H](c1cccc(-n2cc3c(C(F)(F)F)cc(CN4CCC5(CC5)C4)cn3c2=O)c1)C1COC1` [Compound 412], the pIC50 was over 7.00. Consider `Cn1cnnc1[C@@H](c1cccc(-n2cc3c(C(F)(F)F)cc(CN4CCC(C)(F)CC4)cn3c2=O)c1)C1COC1` [Compound 413], for which the pIC50 was over 7.00. As to `Cn1cnnc1[C@@H](c1cccc(-n2cc3c(C(F)(F)F)cc(CN4CCC(F)CC4)cn3c2=O)c1)C1COC1` [Compound 414], the pIC50 was over 7.00. For `COC1CCN(Cc2cc(C(F)(F)F)c3cn(-c4cccc([C@H](c5nncn5C)C5COC5)c4)c(=O)n3c2)CC1` [Compound 415], the pIC50 is over 7.00. Regarding `C[C@@H]1CCCN(Cc2cc(C(F)(F)F)c3cn(-c4cccc(C5(Cc6nncn6C)COC5)c4)c(=O)n3c2)C1` [Compound 416], the pIC50 was over 7.00. `Cn1cnnc1[C@@H](c1cccc(-n2cc3c(C(F)(F)F)cc(C(=O)N4CCC5(CC5)C4)cn3c2=O)c1)C1CCC1` [Compound 429]: the pIC50 was 6.52 to 7.00. As for `Cn1cnnc1[C@@H](c1cccc(-n2cc3c(C(F)(F)F)cc(C(=O)N4CCC(C)(F)CC4)cn3c2=O)c1)C1CCC1` [Compound 430], the pIC50 is 6.00 to 6.52. Consider `C[C@H]1CCCN(Cc2cc(C(F)(F)F)c3cn(-c4cccc(Cc5cccnn5)c4)c(=O)n3c2)C1` [Compound 431], for which the pIC50 was under 5.00. The same measure, in the same setting: then `C[C@@H]1CN(Cc2cc(C(F)(F)F)c3cn(-c4cccc(C5(c6nncn6C)CCC5)c4)c(=O)n3c2)CCO1` [Compound 432], with under 5.00. The same measure, in the same setting: in the case of `CC(=O)N1CC([C@@H](c2cccc(-n3cc4c(C(F)(F)F)cc(CN5CCC[C@H](C)C5)cn4c3=O)c2)c2nncn2C)C1` [Compound 434_P1] it was under 5.00; in that of `CC(=O)N1CC([C@H](c2cccc(-n3cc4c(C(F)(F)F)cc(CN5CCC[C@H](C)C5)cn4c3=O)c2)c2nncn2C)C1` [Compound 434_P2], 5.52 to 6.00; in that of `C[C@@H]1C[C@H](C)CN(Cc2cc(C(F)(F)F)c3cn(-c4cccc([C@H](c5nncn5C)C5CCC5)c4)c(=O)n3c2)C1` [Compound 449], over 7.00.

In the case of `Cn1cnnc1C1(c2cccc(-n3cc4c(C(F)(F)F)cc(CN5CCC6(CC6)C5)cn4c3=O)c2)CCC1` [Compound 450], the pIC50 is over 7.00.

Consider `Cn1cnnc1C1(c2cccc(-n3cc4c(C(F)(F)F)cc(CN5CC6(CC6)C5)cn4c3=O)c2)CCC1` [Compound 451], for which the pIC50 is over 7.00.

On to `C[C@H]1CCCN(Cc2cc(C(F)(F)F)c3cn(-c4cccc(C(=C5CCC5)c5nncn5C)c4)c(=O)n3c2)C1` [Compound 466], for which the pIC50 was over 7.00. As for `Cn1cnnc1[C@@H](c1cccc(-n2cc3c(C(F)(F)F)cc(CN4CCCOC4=O)cn3c2=O)c1)C1CCC1` [Compound 467], the pIC50 was over 7.00.

For the compound `Cn1cnnc1[C@@H](c1cccc(-n2cc3c(C(F)(F)F)cc(CN4CCOC4=O)cn3c2=O)c1)C1CCC1` [Compound 468], the pIC50 was over 7.00. Turning to `COC(=O)N(C)Cc1cc(C(F)(F)F)c2cn(-c3cccc([C@H](c4nncn4C)C4CCC4)c3)c(=O)n2c1` [Compound 469], the pIC50 was over 7.00. Consider `C[C@H]1CCCN(Cc2cc(C(F)(F)F)c3cn(-c4cccc([C@H](c5nncn5C)C5CN(C)C5)c4)c(=O)n3c2)C1` [Compound 470_P1], for which the pIC50 is under 5.00. As for `C[C@H]1CCCN(Cc2cc(C(F)(F)F)c3cn(-c4cccc([C@@H](c5nncn5C)C5CN(C)C5)c4)c(=O)n3c2)C1` [Compound 470_P2], the pIC50 was under 5.00. On to `Cn1cnnc1C1(c2cccc(-n3cc4c(C(F)(F)F)cc(CN5CCC(C)(F)CC5)cn4c3=O)c2)CCC1` [Compound 471], for which the pIC50 was over 7.00. `C[C@H]1CCCN(Cc2cc(C(F)(F)F)c3cn(-c4cccc([C@@H](c5nncn5C)C5CC5)c4)c(=O)n3c2)C1` [Compound 472_P1]: the pIC50 was 6.52 to 7.00. For `C[C@H]1CCCN(Cc2cc(C(F)(F)F)c3cn(-c4cccc([C@H](c5nncn5C)C5CC5)c4)c(=O)n3c2)C1` [Compound 472_P2], the pIC50 is over 7.00. Consider `Cn1cnnc1C1(c2cccc(-n3cc4c(C(F)(F)F)cc(CN5CCc6ncsc6C5)cn4c3=O)c2)CCC1` [Compound 473], for which the pIC50 is over 7.00. For the compound `CN1CCCN(Cc2cc(C(F)(F)F)c3cn(-c4cccc([C@H](c5nncn5C)C5CCC5)c4)c(=O)n3c2)C1=O` [Compound 482], the pIC50 was over 7.00. Take `CN1CCN(Cc2cc(C(F)(F)F)c3cn(-c4cccc([C@H](c5nncn5C)C5CCC5)c4)c(=O)n3c2)C1=O` [Compound 483]: the pIC50 is over 7.00.

In the case of `CN(C)C(=O)N(C)Cc1cc(C(F)(F)F)c2cn(-c3cccc([C@H](c4nncn4C)C4CCC4)c3)c(=O)n2c1` [Compound 484], the pIC50 was over 7.00. As to `[2H]C([2H])(c1cc(C(F)(F)F)c2cn(-c3cccc([C@H](c4nncn4C)C4CCC4)c3)c(=O)n2c1)N1CCC[C@H](C)C1` [Compound 487], the pIC50 is over 7.00.

For `C[C@H]1COCCN1Cc1cc(C(F)(F)F)c2cn(-c3cccc([C@H](c4nncn4C)C4CCC4)c3)c(=O)n2c1` [Compound 488], the pIC50 is over 7.00.

In the case of `C[C@@H]1COCCN1Cc1cc(C(F)(F)F)c2cn(-c3cccc([C@H](c4nncn4C)C4CCC4)c3)c(=O)n2c1` [Compound 489], the pIC50 was over 7.00. Consider `[2H]C([2H])(c1cc(C(F)(F)F)c2cn(-c3cccc(C4(Cc5nncn5C)COC4)c3)c(=O)n2c1)N1CCC[C@H](C)C1` [Compound 490], for which the pIC50 was over 7.00.

Take `C[C@@H]1CCCN(Cc2cc(C(F)(F)F)c3cn(-c4cccc([C@H](c5nncn5C)C5CCC5)c4)c(=O)n3c2)C1` [Compound 491]: the pIC50 was over 7.00.

On to `CN1C(=O)CCN1Cc1cc(C(F)(F)F)c2cn(-c3cccc([C@H](c4nncn4C)C4CCC4)c3)c(=O)n2c1` [Compound 498], for which the pIC50 is over 7.00.
